In patent US20110105393A1, “METHODS FOR PROMOTING STEM CELL PROLIFERATION AND SURVIVAL” (priority 2007, published 2011):

Experiments:
Tie-2 receptor = experiment: Tie-2 phosphorylation in fetal neural cells (Western blot); format: cell-based, mouse; details: exogenous addition, Western blot (FIG. 10a)
Method: (§1) Cell Culture: E13.5 cortical embryonic mouse CNS stem cells were grown as previously described (Johe et al., Genes Dev 10, 3129, 1996). Cells were expanded in serum-free DMEM/F12 medium with N2 supplement and FGF2 (20 ng/ml) for 5 days under 5% oxygen conditions and were re-plated fresh or from frozen stocks at 1,000-10,000 cells per cm^2. FGF2 was included throughout our experiments, unless otherwise stated. Adult rat (3-6 months old) or adult mouse (2-4 months old) SVZ Neural Stem Cell (NSC) cultures were grown in the same medium as the fetal cultures.
(§2) Pharmacological treatments: Unless otherwise stated, we used the following concentrations: Dll4 and Ang2 (in vitro, 500 ng/ml; in vivo 12.5 μg as a single injection), FGF2 (in vitro, 20 ng/ml), JAK inhibitor (in vitro, 200 nM; in vivo, 250 ng as a single injection), insulin (in vitro, 25 μg/ml; in vivo, 40 μg as a single injection), DAPT (1 μM), Fluorogold (0.5 μg). […]
Three characterized Tie-2 receptor antibodies were used to determine if the Tie-2 receptor was expressed in the immature neural precursor cells found in the SVZ of the adult brain. […] Precursor cells that proliferate in vitro can be readily derived from the fetal and adult brain. […] This colony number assay measured the survival of precursor cells that could differentiate into neurons and glia (See, Table 1).

adult rat SVZ NSCs = experiment: Expansion of adult rat SVZ NSC / neural precursor cultures; format: cell-based
Method: as §1, with “culture:” for “Culture:”, “(Johe,” for “(Johe”, “3129-40,” for “3129,”, “the studies,” for “our experiments,”, “NSC” for “Neural Stem Cell (NSC)”
Pharmacological treatments: Unless otherwise stated, the following concentrations were used: Dll4 and Ang-2 (in vitro, 500 ng/ml; in vivo 12.5 μg as a single injection), FGF2 (in vitro, 20 ng/ml), JAK inhibitor (in vitro, 200 nM; in vivo, 250 ng as a single injection), insulin (in vitro, 25 μg/ml; in vivo, 40 μg as a single injection), DAPT (1 μM), Fluorogold (0.5 μg). For the survival assays, compounds were added daily and Notch ligands every 2 days for the duration of the experiment. For the effects of kinase inhibitors on Notch activation, cells were pre-incubated for 1 h prior to Notch activation.
as §1, §2

mTOR = mTOR phosphorylation in NSC cultures (Western blot); format: cell-based, mouse
Method: as §1, with “culture:” for “Culture:”, “(Johe,” for “(Johe”, “3129-40,” for “3129,”, “the studies,” for “our experiments,”, “NSC” for “Neural Stem Cell (NSC)”
(§3) Fetal NSCs in culture express Ang-1, and treatment (2 days) with Dll4 maintained it whereas CNTF reduced it. Ang-2 expression was maintained under these conditions. […] Ang-2 induced mTOR and STAT3-S727 phosphorylation, unlike Ang-1 (FIG. 2a). Ang-1, however, induced Akt phosphorylation.
Three characterized Tie-2 receptor antibodies were used to determine if the Tie-2 receptor was expressed in the immature neural precursor cells found in the SVZ of the adult brain. When ligand is bound, the Tie-2 receptor becomes phosphorylated. An antibody that recognizes the activated receptor (RnD Systems, AF2720) and another antibody that binds to a distinct site (Santa Cruz, sc-324) identified many positive cells in the subventricular zone of the adult rat brain. In regions that were more distant from the ventricle, Tie-2 was expressed predominantly on blood vessels and endothelial cells reacted with antibodies against the activated receptor. Precursor cells that proliferate in vitro can be readily derived from the fetal and adult brain. The homogeneity of these cell populations in attached culture and their potential to generate neurons and glia is supported by clonal analysis. […] This colony number assay measured the survival of precursor cells that could differentiate into neurons and glia (See, Table 1).

Hes3 = Hes3 protein immuno-staining in fetal NSC cultures; format: cell-based, mouse; details: 2 day treatment
Method: as §1, with “culture:” for “Culture:”, “(Johe,” for “(Johe”, “3129-40,” for “3129,”, “the studies,” for “our experiments,”, “NSC” for “Neural Stem Cell (NSC)”
Hes3 mRNA is present in fetal NSC cultures under conditions that support their self-renewal but CNTF-induced differentiation (Bonni, A. et al., Science 278, 477-83, 1997; Rajan & McKay, J Neurosci 18, 3620-9, 1998): downregulates Hes3 message (Androutsellis-Theotokis, A. et al., Nature 442, 823-6, 2006). Knockout studies have shown a role of Hes3 in self-renewal (Hatakeyama, J. et al., Development 131, 5539-50, 2004). It was investigated if Hes3 mediates stem cell functions in vitro to assess its use as a functional NSC marker. Fetal (E13.5) cortical tissue was dissociated and magnetic sorting was used to isolate a cell population that expressed AC133, an established marker of NSCs (Uchida, N. et al., Proc Natl Acad Sci USA 97, 14720-5, 2000). […]

Ang-1 = Ang-1 expression in fetal NSC cultures; format: cell-based, mouse; details: fetal NSCs in culture, treatment 2 days
Method: as §1, with “culture:” for “Culture:”, “(Johe,” for “(Johe”, “3129-40,” for “3129,”, “the studies,” for “our experiments,”, “NSC” for “Neural Stem Cell (NSC)”
as §3

| Substance | phosphorylation of Tie-2 (Tie-2 receptor) | generation of adult rat SVZ NSCs in vitro (adult rat SVZ NSCs; 0.5 μg/ml, 5-d (FIG. 2b)) | colony formation and overall cell numbers (adult rat SVZ NSCs; adult rat SVZ NSC cultures treated with Dll4) | increase in the numbers of proliferating cells (adult rat SVZ NSCs; cells from adult SVZ in culture, added to Dll4, insulin and FGF2, p=2.15×10^−5 (FIG. 10b)) [fold] | mTOR phosphorylation (mTOR; NSC cultures, 0.5 μg/ml (FIG. 2a, Example 3)) | effect on mTOR (mTOR; Western blots, fetal neural cells (FIG. 10a, Example 9)) | pathology associated with the 6OHDA lesion (single intraventricular injection 2 weeks after lesion) | risk of bleeding (summary of in vivo treatments) | Hes3 protein expression (Hes3) | Ang-1 expression (Ang-1) |
| --- | --- | --- | --- | --- | --- | --- | --- | --- | --- | --- |
| Ang-2: human angiopoietin-2 (623-AN) from R&D; antagonist for angiopoietin-1 at Tie2 | promoted phosphorylation | profoundly increased | significantly increased | 7 | induced | no effect | hemorrhage and an enlarged ventricle | increases the risk of bleeding | – | – |
| Dll4: Notch ligand Delta-like 4; mouse Dll4 (1389-D4) from R&D | – | – | – | – | – | – | – | – | maintained | maintained |
